# Laboratory results reported in patent US9969758B2, “Antimicrobial compounds” (BIOMERIEUX, priority 2014, dated 2018).
# Key:
# [1] = system: All S. aureus (50); test: MIC by agar dilution; format: cell-based, Staphylococcus aureus
# Summary of the method: (§1)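 Agar dilution in peptone-free medium with 2% saponin-lysed horse blood, 25.0 μg/mL NAD and 25.0 μg/mL hemin; compounds at 0.016–32 μg/mL for gram-positives. Inoculum 10 000 CFU/spot; plates incubated 22 hours at 37° C, at least two independent replicates.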
# [2] = system: K. pneumoniae (87); test: MIC by agar dilution; format: cell-based, Klebsiella pneumoniae; conditions: Klebsiella pneumoniae
# Summary of the method: (§2)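 Agar dilution on peptone-free medium with 2% lysed horse blood, NAD and hemin (25.0 μg/mL each), compounds 0.0031 to 8.0 μg/mL; inoculum 10 000 CFU/spot, 22 h at 37° C. Fosfomycin tested in IsoSensitest medium plus 25.0 μg/mL glucose-6-phosphate; at least two replicates.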
# [3] = system: E. faecium (34); test: MIC by agar dilution; format: cell-based, Enterococcus faecium
# Summary of the method: as §1
# [4] = system: K. oxytoca; test: MIC by agar dilution; format: cell-based, Klebsiella oxytoca; conditions: five isolates of K. oxytoca
# Text: (§3) Bacterial isolates. […] These included Citrobacter freundii (n=5), other species of Citrobacter (n=4), Enterobacter aerogenes (n=1), Enterobacter cloacae (n=27), Escherichia coli (n=53), Klebsiella oxytoca (n=5), Klebsiella pneumoniae (n=87), Kluyvera spp (n=1), Proteus mirabilis (n=8), Providencia rettgeri (n=2), Salmonella spp (n=3), and Serratia marcescens (n=1). Among these 197 isolates, there were 128 (65%) carbapenemase producers, including; 87 with NDM-1, 9 with IMP, 11 with KPC, 14 with OXA-48 and 7 with VIM. The majority of the carbapenemase producers jointly produced broad-spectrum β-lactamases (BSBL) or cephalosporinases (AmpC β-lactamases), but the latter are not documented for the sake of clarity.
# (§4) Determining the minimum inhibitory concentrations (MIC). All the MICs were determined using an agar dilution method. This required use of a medium without a defined antagonist (peptone-free), prepared as described previously with the inclusion of 2% horse blood lysed with saponin, 25.0 μg/mL of NAD and 25.0 μg/mL of hemin [17]. […] The MICs of fosfomycin were determined by the same method, except that the IsoSensitest medium (Oxoid, Basingstoke, United Kingdom) was used, plus 25.0 μg/mL of glucose-6-phosphate (Sigma, Poole, United Kingdom) and an extended range of fosfomycin concentrations. […]
# [5] = system: E. aerogenes (n=1); test: MIC by agar dilution; format: cell-based, Enterobacter aerogenes
# Text: as §3, §4
# [6] = system: glycopeptide-resistant enterococci; test: MIC by agar dilution; format: cell-based
# Summary of the method: as §1
# [7] = system: All Enterococci (50); test: MIC by agar dilution; format: cell-based
# Summary of the method: as §1
# [8] = system: methicillin-resistant Staphylococcus aureus; test: MIC by agar dilution; format: cell-based
# Summary of the method: as §1
# [9] = system: methicillin-sensitive Staphylococcus aureus; test: MIC by agar dilution; format: cell-based
# Summary of the method: as §1
# [10] = system: E. coli (53); test: MIC by agar dilution; format: cell-based, Escherichia coli
# Summary of the method: as §2
# [11] = system: Escherichia coli; test: Growth and colour on Salmonella detection medium; format: cell-based; conditions: added to the chromID Salmonella medium (0.002 g/L)
# Text: The present Example 3 aims to compare the detection specificity of a reaction medium according to the invention, intended to detect bacteria of the genus Salmonella, namely the medium “modified chromlD Salmonella” against a reference detection medium for the same bacteria, namely the medium “chromlD Salmonella”.
# The respective compositions of the reaction medium according to the present invention and of the reference reaction medium are presented below, within Table 2.
# [12] = system: carbapenemase-producing Enterobacteriaceae; test: MIC by agar dilution; format: cell-based
# Summary of the method: as §2
# [13] = system: Citrobacter (n=9); test: MIC by agar dilution; format: cell-based
# Summary of the method: as §2
# [14] = system: Enterobacteriaceae with a broad-spectrum β-lactamase; test: MIC by agar dilution; format: cell-based
# Summary of the method: as §2
# [15] = system: Enterobacteriaceae (197); test: MIC by agar dilution; format: cell-based
# Summary of the method: as §2
# [16] = system: E. faecalis (11); test: MIC by agar dilution; format: cell-based, Enterococcus faecalis; conditions: Enterococcus faecalis
# Summary of the method: as §1
# [17] = system: Salmonella isolates; test: MIC by agar dilution; format: cell-based, Salmonella spp; conditions: Salmonella, read-out: MICs
# Text: as §3, §4
# [18] = system: S. marcescens (n=1); test: MIC by agar dilution; format: cell-based, Serratia marcescens
# Text: as §3, §4
# [19] = system: Kluyvera sp. (n=1); test: MIC by agar dilution; format: cell-based, Kluyvera spp
# Text: as §3, §4
# [20] = system: E. cloacae (27); test: MIC by agar dilution; format: cell-based, Enterobacter cloacae
# Summary of the method: as §2
# [21] = system: AmpC (22); test: MIC by agar dilution; format: cell-based, Enterobacteriaceae
# Summary of the method: as §2
# [22] = read-out: Modal MIC (most frequent MIC)
smiles,measurement,setting,value
"C[C@H](NC(=O)[C@@H](N)CCl)P(=O)(O)O [β-Cl-Alafosfalin, β-chloro-L-alanyl-L-1-aminoethylphosphonic acid]",MIC Range,[1]; All S. aureus (50),0.125 to 4 µg/mL
same,MIC50,[1]; Staphylococcus aureus,1 µg/mL
same,MIC90,[1]; Staphylococcus aureus,2 µg/mL
same,MIC,"[1]; Staphylococcus aureus, read-out: Modal MIC (most frequent MIC)",2 µg/mL
same,MIC50,[2],1 µg/mL
same,MIC90,[2],8 µg/mL
same,MIC,[2]; [22],1 µg/mL
same,percent of isolates inhibited at 8 µg/mL,[2]; read-out: isolates inhibited,93%
same,MIC Range,[3]; E. faecium (34),2 to 32 µg/mL
same,MIC50,[3]; Enterococcus faecium,4 µg/mL
same,MIC90,[3]; Enterococcus faecium,8 µg/mL
same,MIC,"[3]; Enterococcus faecium, read-out: Modal MIC (most frequent MIC)",4 µg/mL
same,concentration by which all isolates were inhibited,[4],≤ 2 µg/mL
same,concentration to which all the isolates were sensitive,[5],≤ 2 µg/mL
same,MIC50,[6],8 µg/mL
same,MIC90,[6],16 µg/mL
same,MIC,[6]; [22],4 µg/mL
same,MIC50,[7],8 µg/mL
same,MIC90,[7],16 µg/mL
same,MIC,[7]; [22],8 µg/mL
same,MIC Range,[8]; MRSA (37),0.125 to 2 µg/mL
same,concentration by which all the isolates were inhibited,[8]; MRSA isolates,2.0 µg/mL
same,MIC50,"[8]; Staphylococcus aureus, MRSA",2 µg/mL
same,MIC90,"[8]; Staphylococcus aureus, MRSA",2 µg/mL
same,MIC,"[8]; Staphylococcus aureus, MRSA, read-out: Modal MIC (most frequent MIC)",2 µg/mL
same,MIC Range,[9]; MSSA (13),0.5 to 4 µg/mL
same,MIC50,"[9]; Staphylococcus aureus, MSSA",1 µg/mL
same,MIC90,"[9]; Staphylococcus aureus, MSSA",2 µg/mL
same,MIC,"[9]; Staphylococcus aureus, MSSA, read-out: Modal MIC (most frequent MIC)",1 µg/mL
same,concentration by which growth of all the isolates was inhibited,[10]; 53 isolates of E. coli,0.5 µg/mL
same,activity relative to that of alafosfalin,[10]; E. coli,at least twice
same,activity relative to that of fosfomycin,[10]; E. coli,at least eight
same,MIC Range,[10]; E. coli (53),≤0.031-0.5 ^ μg/mL
same,MIC50,[10]; Escherichia coli,0.063 µg/mL
same,MIC90,[10]; Escherichia coli,0.125 µg/mL
same,MIC,"[10]; Escherichia coli, read-out: Modal MIC (most frequent MIC)",0.063 µg/mL
same,effect on the osidase activities of the strains of Escherichia coli,[11],selectively inhibit
same,MIC50,[12],0.5 µg/mL
same,MIC90,[12],2 µg/mL
same,MIC,[12]; [22],1 µg/mL
same,concentration to which all the isolates were sensitive,[13],≤ 2 µg/mL
same,MIC50,[14],0.5 µg/mL
same,MIC90,[14],> 8 µg/mL
same,MIC,[14]; [22],0.063 µg/mL
same,MIC50,[15],0.5 µg/mL
same,MIC90,[15],8 µg/mL
same,MIC,[15]; [22],1 µg/mL
same,MIC50,[16],8 µg/mL
same,MIC90,[16],16 µg/mL
same,MIC,[16]; [22],8 µg/mL
same,MIC,[17],2 to 4 µg/mL
same,concentration to which all the isolates were sensitive,[18],≤ 2 µg/mL
same,concentration to which all the isolates were sensitive,[19],≤ 2 µg/mL
same,MIC Range,[20]; E. cloacae (27),0.063 to 1 µg/mL
same,concentration by which all the isolates were inhibited,[20]; E. cloacae isolates (n=27),1 µg/mL
same,MIC50,[20]; Enterobacter cloacae,0.5 µg/mL
same,MIC90,[20]; Enterobacter cloacae,0.5 µg/mL
same,MIC,"[20]; Enterobacter cloacae, read-out: Modal MIC (most frequent MIC)",0.5 µg/mL
same,MIC50,[21],2 µg/mL
same,MIC90,[21],> 8 µg/mL
same,MIC,[21]; [22],> 8 µg/mL
